Patent publication US5364615A (priority 1992, dated 1994)
Where “and” joins values, the source holds several entries; their conditions need not be identical. Equal entries are not always repeated. Entries after “also recorded” stand apart in the source; their conditions may differ. Where two headings read alike, the source gives them in different places.

Assays:
Pneumocystis carinii [1] = assay: Treatment of Pneumocystis carinii pneumonia, inhaled vs intravenous pentamidine (Example 1); type: in vivo, human
[2] = Pentamidine concentrations in lavage fluid and plasma, HPLC (Example 1); type: in vivo, human
Description: For six inhalation patients (1, 4, 6, 7, 15, and 16) and five i.v. patients (2, 3, 5, 8, and 22), plasma samples were obtained at the completion of therapy and at 0.17, 0.5, 1, 1.5, 2, 2.5, 3, 4, 5, 6, 8, 10, 12, and 18 hours following initiation of therapy. For patients 9-14 and 17-21, trough and peak plasma samples were collected for the first three days, then weekly during therapy. Trough and peak samples were obtained on days 2, 3, 4, 5, 7, 11, and 13 for patient 2, days 2, 3, 4, 5, 7, and 12 for patient 3, days 2, 3, 4, 5, 13 and 18 for patient 5, and days 2, 3, 4, 5, and 11 for patient 8.

Pneumocystis carinii [3] = type: in vivo, human
[4] = Serum pentamidine concentrations (Example 3); type: in vivo, human; settings: aerosol
[5] = human, in vivo
Description: Chest radiographs and arterial blood gas tensions were obtained as clinically indicated.

Pneumocystis carinii [6] = assay: Prevention of PCP, different dosages and regimens (Example 6); type: in vivo, human
Description: A total of 438 participants were selected on the basis of seropositivity for HIV, and were stratified on the basis of (i) prior PCP (n=250), (ii) Kaposi's sarcoma (n=59), or (iii) ARC (n=129).

[7] = 13 patients treated successfully

In the case of `N=C(N)c1ccc(OCCCCCOc2ccc(C(=N)N)cc2)cc1` [pentamidine, p,p'-(pentamethylenedioxy)dibenzamidine], the Outcome of therapy (Pneumocystis carinii [1]; inhalation 4 mg/Kg, UltraVent, per patient) is reported as “failed; also recorded: success”, the satisfactory response rate (Pneumocystis carinii [1]; inhalation therapy, evaluable patients) is reported as 90% and the treatment failures (Pneumocystis carinii [1]; inhalation, 4 of 13 patients) is reported as 31%. For the same molecule, the responded satisfactorily (Pneumocystis carinii [1]; inhalation, 9 of 13 patients) was 69%, the Time to discharge (Pneumocystis carinii [1]; inhalation, all patients in group, based on 9 successful patients) was 15 ± 1 days and the “satisfactory outcome (patients)” value (Pneumocystis carinii [1]; inhalation, of ten evaluated patients) was “nine had a satisfactory outcome”. The “died in the hospital” value (Pneumocystis carinii [1]; inhalation, one patient) was 7.7%, the Time to discharge (Pneumocystis carinii [1]; inhalation, per patient (patient 9 died on day 9)) was 27 days and 17 days and 16 days and 15 days and 14 days and 13 days and the “satisfactory outcome (patients)” value (Pneumocystis carinii [1]; intravenous) was “Eight of nine iv-treated patients exhibited a satisfactory outcome”. For the same molecule, the Outcome of therapy (Pneumocystis carinii [1]; intravenous 3 mg/Kg, per patient, 3 mg/kg) was “success; also recorded: failed”, the Time to discharge (Pneumocystis carinii [1]; intravenous, based on 8 successful patients) was 14 ± 2 days and the responded satisfactorily (Pneumocystis carinii [1]; intravenous, eight of nine) was 89%. The relapse (Pneumocystis carinii [1]; intravenous, four patients followed five to six months) was “no reported relapses”, the Time to discharge (Pneumocystis carinii [1]; intravenous, per patient) was 14 days and 12 days and 18 days and 13 days and 16 days and the concentration at 288 h ([2]; human, bronchoalveolar lavage fluid, inhaled or intranasal, inhalation, patient 4, day 12, read-out: mean concentration in repeat lavage) was 178 ± 28 ng/mL. The concentration at 1656 h ([2]; human, bronchoalveolar lavage fluid, inhaled or intranasal, inhalation, patient 4, day 69 following completion of therapy, read-out: mean concentration in repeat lavage) was 5.61 ± 0.78 ng/mL, the concentration at 360 h ([2]; human, bronchoalveolar lavage fluid, inhaled or intranasal, inhalation, patient 6, day 15, read-out: mean concentration in repeat lavage) was 63 ± 22 ng/mL and the concentration at 360 h ([2]; human, bronchoalveolar lavage fluid, inhaled or intranasal, inhalation, patient 12, day 15, read-out: mean concentration in repeat lavage) was 45.7 ± 0.9 ng/mL. For the same molecule, the concentration at 1128 h ([2]; human, bronchoalveolar lavage fluid, inhaled or intranasal, inhalation, patient 14, day 47, read-out: mean concentration in repeat lavage) was 3 ± 0.5 ng/mL, the concentration at 48 h ([2]; human, bronchoalveolar lavage fluid, iv, patient 2, day 2) was 10.9 ± 2.9 ng/mL and the concentration at 144 h ([2]; human, bronchoalveolar lavage fluid, iv, patient 5, day 6) was 3.4 ± 0.2 ng/mL. For the same molecule, the Cmax ([2]; human, plasma, iv, read-out: maximum plasma concentration during remainder of therapy, mean) was 497 ± 451 ng/mL, the “plasma samples without detectable drug” value ([2]; inhalation) was “approximately two-thirds of the plasma samples contained no detectable drug” and the “lavage fluid concentration, inhalation vs iv” value ([2]; inhalation patients higher than iv-treated) was “approximately 10 fold”. For the same molecule, the “Plasma max during treatment” value ([2]; inhalation, highest concentration during remainder of therapy, per patient) was 6.1 ng/mL and 21.8 ng/mL and 7.8 ng/mL and 5.0 ng/mL and 13.0 ng/mL and 45.4 ng/mL and 12.3 ng/mL and 6.9 ng/mL and 29.5 ng/mL and 11.5 ng/mL and 79.2 ng/mL and 23.2 ng/mL, the “Mean concentration in lavage fluid” value ([2]; inhalation, mean ± SD in (N) consecutive lavages, per patient) was 55.3 ± 17.1 ng/mL and 28.6 ± 10 ng/mL and 66.8 ± 16 ng/mL and 30.6 ± 27.5 ng/mL and 16.8 ± 7.3 ng/mL and 49.1 ± 22.5 ng/mL and 149.7 ± 87.2 ng/mL and 92.4 ± 53.9 ng/mL and the “Plasma conc. on Day 1” value ([2]; inhalation, peak during inhalation (patients 1, 4, 6, 7, 15, 16) or at end of inhalation (10-14, 17)) was 0.0 ng/mL. The “Time to max conc.” value ([2]; inhalation, plasma, per patient) was 5 days and 2 days and 1 days and 3 days and 14 days and 8 days, the mean plasma concentration ([2]; intravenous, at completion of first infusion) was 179 ± 185 ng/mL and the relapse (Pneumocystis carinii [3]; 13 patients followed 2-4 months) was “No patient presented evidence of relapse”. The “arterial oxygenation and vital capacity” value (Pneumocystis carinii [3]; [7]) was “Eleven of the 13 patients showed improvements of their arterial oxygenation and vital capacity”, the “dyspnea, respiratory rate and fever” value (Pneumocystis carinii [3]; [7]) was “marked reduction in dyspnea, respiratory rate and fever” and the radiographic improvement (Pneumocystis carinii [3]; [7]) was 4 had radiographic improvement beginning by the second week of therapy and Five patients showed worsened radiographic infiltrates at one week with subsequent improvement and remaining 4 patients had worsened radiographic infiltrates or no improvement for the first two weeks of therapy, then improvement. The overall efficacy rate (Pneumocystis carinii [3]; 95% confidence limits, 58% to 98%) was 87%, the “Pre therapy DLCO” value (Pneumocystis carinii [3]; baseline) was 64.9 percent predicted and the “Pre therapy PaO2” value (Pneumocystis carinii [3]; baseline) was 67.9 torr. For the same molecule, the “Pre therapy Vital Capacity” value (Pneumocystis carinii [3]; baseline) was 50.8 percent predicted, the “subjective and objective improvement” value (Pneumocystis carinii [3]; human, in vivo) was “Thirteen of 15 patients had subjective and objective improvement” and the “time of clinical improvement” value (Pneumocystis carinii [3]; human, in vivo) was “Ten patients had clinical improvement in the first week of therapy, and 3 patients during the second week of therapy”. For the same molecule, the “Successful Treatment W/ Change, %” value (Pneumocystis carinii [3]; n = 15) was 93%, the “Successful Treatment w/o Change, %” value (Pneumocystis carinii [3]; n = 15) was 86% and the “treatment failure / death” value (Pneumocystis carinii [3]; one patient with concomitant tuberculosis therapy, changed to TMP-SMX on day 7) was “died of progressive respiratory failure”. For the same molecule, the “Post therapy DLCO” value (Pneumocystis carinii [3]; post therapy) was 61.7 percent predicted, the “Post therapy PaO2” value (Pneumocystis carinii [3]; post therapy) was 80.1 torr and the “Post therapy Vital Capacity” value (Pneumocystis carinii [3]; post therapy) was 61.8 percent predicted. The serum pentamidine concentration ([4]; 2 patients at end of therapy) was 22 ng/mL and 32 ng/mL, the serum pentamidine concentration ([4]; 12/14 patients) was “less than 10 ng/mL” and the severe adverse reactions [5] was “No patient developed any severe adverse reactions”. The mortality rate (Pneumocystis carinii [6]; 372 participants) was 1.6%, the relapse rate (Pneumocystis carinii [6]; 372 participants, at least one treatment) was 4.6% and the “deaths due to PCP” value (Pneumocystis carinii [6]; ARC, group a, 30 mg) was 1. The “PCP Events” value (Pneumocystis carinii [6]; ARC, group a, 30 mg every two weeks) was 2, the “PCP Events” value (Pneumocystis carinii [6]; ARC, group b, 150 mg every two weeks) was 0 and the “PCP Events” value (Pneumocystis carinii [6]; ARC, group c, 300 mg every four weeks) was 0. The “PCP Events” value (Pneumocystis carinii [6]; Kaposi's, group a, 30 mg every two weeks) was 0 and the “PCP Events” value (Pneumocystis carinii [6]; Kaposi's, group b, 150 mg every two weeks) was 1.
